The source of these data is US20200384072A1, “THERAPY OF IONIZING RADIATION-INDUCED DISORDERS” (SCK-CEN, priority 2019, published 2020).

Experiment [1] concerns TICAE cells. In words: Cell death, Annexin V and Caspase 3/7 live cell imaging, TICAE cells. The format is cell-based, human. The method, then: TICAE and TIME cells were seeded in 96 well plates at a density of 10000 cells/well in 8 biological replicates. After three days, cells were at 100% confluence. At 30 minutes before X-ray exposure, cells were refreshed with 200 μl medium supplemented with Caspase 3/7 reagent (1:1000 dilution) and Annexin V reagent (1:200 dilution) (Essen Bioscience, United Kingdom) with or without 100 μM TAT-Gap19 (Genosphere Biotechnologies, Paris, France). Fluorescence signals were measured from 4 h until 100 h after irradiation by imaging every 2 hours using the IncuCyte ZOOM® system (Essen BioScience, Ann Arbor, Mich., USA). Different channels (TRITC, FITC and phase contrast) and a 10× objective were used. Spectral unmixing set as 8% of red removed from green was applied. The IncuCyte software's processing definition was set to recognize red (Annexin V) and green (Caspase 3/7) stained cells, making use of the Top-Hat background subtraction method. Fluorescence signal was normalized to cell count.

Experiment [2] relates to TICAE cells. Put plainly: Cytokine detection (Magnetic Luminex) in supernatant after irradiation, TICAE cells. In kind it is cell-based, human. How it is done: TICAE and TIME cells were seeded in a 6-well plate at a density of 2.5×10^5 cells/well in 5 to 6 biological replicates. Two to three days later, cells reached 100% confluence. At 30 minutes before X-ray exposure, cells were refreshed with medium with or without 100 μM TAT-Gap19 (Genosphere Biotechnologies, Paris, France). At 24 h, 48 h, 72 h and 7 d after irradiation, the supernatant was collected. Medium was changed only for the 7 d time point experiment at the fourth day with fresh medium alone or with medium supplemented with 100 μM TAT-Gap19. For the simultaneous detection of multiple cytokines in the supernatants, the Magnetic Luminex® Assay (R&D systems, Minneapolis, […]) was used following manufacturer's instructions. Briefly, supernatants, standards and microparticles were incubated into a 96-well plate which was pre-coated with cytokine-specific antibodies. The immobilized antibodies were able to bind the cytokines of interest after 2 h incubation, then the plate was washed and incubation with a biotinylated antibody cocktail specific to the cytokines of interest was performed for 1 h. A second wash was performed to remove the unbound biotinylated antibodies. Further, a streptavidin-phycoerythrin conjugate was added to each well to bind to the biotinylated antibodies. After a final wash, the microparticles were resuspended in buffer and read using the Luminex® MAGPIX Analyzer (R&D systems, Minneapolis, […]).
In order to normalize to cell number, DAPI staining was performed for the 48 h after irradiation time point. Briefly, cells were washed with phosphate buffered saline (PBS) and fixed with 4% paraformaldehyde (PFA) for 15 minutes at room temperature. Afterwards, the cells were washed with PBS and stained with 1 μg/mL 4′,6-Diamidine-2′-phenylindole (DAPI) dissolved in 1×TBST, 0.005 g/v % TSA blocking powder (PerkinElmer, FP1012) (TNB). After one hour, cells were washed with PBS and DAPI signals were visualized with the Nikon Eclipse Ti automated inverted wide-field epifluorescence microscope equipped with a 5× magnification (Plan Fluor, numerical aperture 0.6) dry objective and a Nikon IE2000-E camera controlled by the MS Elements software. The intensity of the DAPI signals was determined with the FIJI software. Cell count for 24 h after irradiation experiment was performed by Moxi Z Mini Automated Cell Counter (ORFLO Technologies, Ketchum, Id., USA) after trypsinization. For the 72 h and 7 d post-irradiation cell counts, we used IncuCyte ZOOM™ phase contrast imaging based on 49 images taken per well with the 10× objective.

The mark [3] stands for this setting: 100 μM TAT-Gap19, 0 Gy and 0.1 Gy, from 4-16 h p.i. until the end.
Setting [4] is: 100 μM TAT-Gap19, 5 Gy, from 12 h p.i. until end of recording (100 h).
Setting [5] is: 100 μM TAT-Gap19, 5 Gy, 72 h and 7 d p.i.

“TAT-Gap19: connexin mimetic peptide, amino-acids 128-136 of the CL of Cx43 (SEQ ID NO: 2), Gap19 linked to TAT sequence; Cx43 hemichannel inhibitor (YGRKKRRQRRRKQIEIKKFK)”: in experiment [1] (setting [3]), the “Annexin V” value is recorded as “significantly reduced” and the “Caspase 3/7 activity” value was “significantly reduced”. For the same substance, in experiment [1] (setting [4]), the “Annexin V” value is on record as “significantly reduced” and the “Caspase 3/7 activity” value is listed as “significantly reduced”. Moreover, the MCP-1 readout result in experiment [2] (100 μM TAT-Gap19, 0 Gy control and 0.1 Gy, 72 h p.i.) is given as “increased”. Also, in experiment [2] (setting [5]), the “IL-8 (radiation-induced increase)” value is reported as “significantly decreased these responses”, the “MCP-1 (radiation-induced increase)” value is given as “significantly decreased these responses” and the “VCAM-1 (radiation-induced increase)” value is “significantly decreased these responses”. The “all tested inflammatory markers” value in experiment [2] (100 μM TAT-Gap19, 24 h time point) is “increased all tested markers”. In experiment [2] (100 μM TAT-Gap19, 7 d p.i.), the “Endothelin-1 (radiation-induced increase)” value is given as “significantly reduced these responses” and the “IL-11 (radiation-induced increase)” value is given as “significantly reduced these responses”. The Endothelin-1 readout entry in experiment [2] (100 μM TAT-Gap19, control and 0.1 Gy) was “decreased”.
